Test results: PubChem BioAssay (NCI)
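Each compound was tested at five concentrations against cells in 96-well plates for 48 hours. At the TGI there is no net growth.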

Experiments:
Assay in all cases: NCI anticancer screen, dose series, 48 h
IGROV1 ovarian = test system: IGROV1 ovarian
MDA-MB-435 = test system: MDA-MB-435
HCT-15 colon = test system: HCT-15 colon
SK-OV-3 ovarian = test system: SK-OV-3 ovarian
A498 renal = test system: A498 renal
T-47D breast = test system: T-47D breast
OVCAR-8 ovarian = test system: OVCAR-8 ovarian
SF-268 CNS = test system: SF-268 CNS
K-562 leukemia = test system: K-562 leukemia
SR leukemia = test system: SR leukemia
OVCAR-5 ovarian = test system: OVCAR-5 ovarian
NCI/ADR-RES ovarian = test system: NCI/ADR-RES ovarian
SN12C renal = test system: SN12C renal
HOP-62 NSCLC = test system: HOP-62 NSCLC
LOX IMVI melanoma = test system: LOX IMVI melanoma
HS 578T breast = test system: HS 578T breast
HL-60(TB) leukemia = test system: HL-60(TB) leukemia
CAKI-1 renal = test system: CAKI-1 renal
NCI-H226 lung = test system: NCI-H226 lung
UACC-62 melanoma = test system: UACC-62 melanoma
MOLT-4 leukemia = test system: MOLT-4 leukemia
786-0 renal = test system: 786-0 renal
HCC-2998 colon = test system: HCC-2998 colon
TK-10 renal = test system: TK-10 renal
SNB-19 CNS = test system: SNB-19 CNS
DU-145 prostate = test system: DU-145 prostate
OVCAR-3 ovarian = test system: OVCAR-3 ovarian
NCI-H23 lung = test system: NCI-H23 lung
U251 CNS = test system: U251 CNS
SK-MEL-5 melanoma = test system: SK-MEL-5 melanoma
MCF7 breast = test system: MCF7 breast
PC-3 prostate = test system: PC-3 prostate
COLO 205 colon = test system: COLO 205 colon
MDA-N = test system: MDA-N
ACHN renal = test system: ACHN renal
SK-MEL-28 melanoma = test system: SK-MEL-28 melanoma
NCI-H522 lung = test system: NCI-H522 lung
MDA-MB-231 breast = test system: MDA-MB-231 breast
RPMI-8226 leukemia = test system: RPMI-8226 leukemia
SW-620 colon = test system: SW-620 colon
HT29 colon = test system: HT29 colon
A549 NSCLC = test system: A549 NSCLC
SF-539 CNS = test system: SF-539 CNS
HOP-92 NSCLC = test system: HOP-92 NSCLC
MALME-3M melanoma = test system: MALME-3M melanoma
CCRF-CEM leukemia = test system: CCRF-CEM leukemia
UACC-257 melanoma = test system: UACC-257 melanoma
KM12 colon = test system: KM12 colon
RXF 393 renal = test system: RXF 393 renal
EKVX NSCLC = test system: EKVX NSCLC
M14 melanoma = test system: M14 melanoma
NCI-H460 lung = test system: NCI-H460 lung
SF-295 CNS = test system: SF-295 CNS
HCT-116 colon = test system: HCT-116 colon
OVCAR-4 ovarian = test system: OVCAR-4 ovarian
SK-MEL-2 melanoma = test system: SK-MEL-2 melanoma
SNB-75 CNS = test system: SNB-75 CNS
BT-549 breast = test system: BT-549 breast
UO-31 renal = test system: UO-31 renal

In the case of `N/C(=N\N=C\c1ccc2c(c1)OCO2)NO`, the TGI (IGROV1 ovarian) is reported as 88.3 µM, the TGI (MDA-MB-435) is reported as > 100 µM and the TGI (HCT-15 colon) is reported as > 100 µM. For the same molecule, the TGI (SK-OV-3 ovarian) was > 100 µM, the TGI (A498 renal) was 56.5 µM and the TGI (T-47D breast) was > 100 µM. It also gave a TGI (OVCAR-8 ovarian) of 40 µM, a TGI (SF-268 CNS) of 75.4 µM and a TGI (K-562 leukemia) of 50.7 µM. For the same molecule, the TGI (SR leukemia) was 31.7 µM, the TGI (OVCAR-5 ovarian) was > 100 µM and the TGI (NCI/ADR-RES ovarian) was 23.1 µM. For the same molecule, the TGI (SN12C renal) was > 100 µM, the TGI (HOP-62 NSCLC) was 66.7 µM and the TGI (LOX IMVI melanoma) was 82.5 µM. The TGI (HS 578T breast) was > 100 µM, the TGI (HL-60(TB) leukemia) was 36 µM and the TGI (CAKI-1 renal) was > 100 µM. For the same molecule, the TGI (NCI-H226 lung) was 40.8 µM, the TGI (UACC-62 melanoma) was 49.2 µM and the TGI (MOLT-4 leukemia) was 77.5 µM. The TGI (786-0 renal) was 37.7 µM, the TGI (HCC-2998 colon) was > 100 µM and the TGI (TK-10 renal) was > 100 µM. The TGI (SNB-19 CNS) was > 100 µM, the TGI (DU-145 prostate) was 99 µM and the TGI (OVCAR-3 ovarian) was 59.1 µM. The TGI (NCI-H23 lung) was 98.8 µM, the TGI (U251 CNS) was > 100 µM and the TGI (SK-MEL-5 melanoma) was 35.2 µM. For the same molecule, the TGI (MCF7 breast) was > 100 µM, the TGI (PC-3 prostate) was > 100 µM and the TGI (COLO 205 colon) was 40.3 µM. The TGI (MDA-N) was > 100 µM, the TGI (ACHN renal) was 47.9 µM and the TGI (SK-MEL-28 melanoma) was > 100 µM. For the same molecule, the TGI (NCI-H522 lung) was > 100 µM, the TGI (MDA-MB-231 breast) was > 100 µM and the TGI (RPMI-8226 leukemia) was 56.9 µM. The TGI (SW-620 colon) was > 100 µM, the TGI (HT29 colon) was > 100 µM and the TGI (A549 NSCLC) was > 100 µM. For the same molecule, the TGI (SF-539 CNS) was 56.5 µM, the TGI (HOP-92 NSCLC) was 83.1 µM and the TGI (MALME-3M melanoma) was 86.8 µM. For the same molecule, the TGI (CCRF-CEM leukemia) was 51.1 µM, the TGI (UACC-257 melanoma) was > 100 µM and the TGI (KM12 colon) was 63.6 µM. The TGI (RXF 393 renal) was > 100 µM, the TGI (EKVX NSCLC) was > 100 µM and the TGI (M14 melanoma) was 32.5 µM. The TGI (NCI-H460 lung) was > 100 µM, the TGI (SF-295 CNS) was > 100 µM and the TGI (HCT-116 colon) was 59.8 µM. The TGI (OVCAR-4 ovarian) was > 100 µM and the TGI (SK-MEL-2 melanoma) was 61.1 µM.
`Cc1nc2c(cc1C(=O)NN)c(=O)n(C)c(=O)n2C` was tested, and the TGI (IGROV1 ovarian) was > 100 µM, the TGI (MDA-MB-435) was > 100 µM and the TGI (HCT-15 colon) was > 100 µM. The TGI (SK-OV-3 ovarian) was > 100 µM, the TGI (T-47D breast) was > 100 µM and the TGI (OVCAR-8 ovarian) was > 100 µM. The TGI (K-562 leukemia) was > 100 µM, the TGI (OVCAR-5 ovarian) was > 100 µM and the TGI (NCI/ADR-RES ovarian) was > 100 µM. For the same molecule, the TGI (SN12C renal) was > 100 µM, the TGI (HOP-62 NSCLC) was > 100 µM and the TGI (CAKI-1 renal) was > 100 µM. For the same molecule, the TGI (NCI-H226 lung) was > 100 µM, the TGI (UACC-62 melanoma) was > 100 µM and the TGI (SNB-75 CNS) was > 100 µM. The TGI (MOLT-4 leukemia) was > 100 µM, the TGI (786-0 renal) was > 100 µM and the TGI (HCC-2998 colon) was > 100 µM. For the same molecule, the TGI (TK-10 renal) was > 100 µM, the TGI (SNB-19 CNS) was > 100 µM and the TGI (DU-145 prostate) was > 100 µM. The TGI (OVCAR-3 ovarian) was > 100 µM, the TGI (NCI-H23 lung) was > 100 µM and the TGI (U251 CNS) was > 100 µM. For the same molecule, the TGI (SK-MEL-5 melanoma) was > 100 µM, the TGI (MCF7 breast) was > 100 µM and the TGI (PC-3 prostate) was > 100 µM. The TGI (COLO 205 colon) was > 100 µM, the TGI (MDA-N) was > 100 µM and the TGI (ACHN renal) was > 100 µM. For the same molecule, the TGI (SK-MEL-28 melanoma) was > 100 µM, the TGI (MDA-MB-231 breast) was > 100 µM and the TGI (RPMI-8226 leukemia) was > 100 µM. The TGI (SW-620 colon) was > 100 µM, the TGI (BT-549 breast) was > 100 µM and the TGI (HT29 colon) was > 100 µM. The TGI (A549 NSCLC) was > 100 µM, the TGI (UO-31 renal) was > 100 µM and the TGI (CCRF-CEM leukemia) was > 100 µM. For the same molecule, the TGI (UACC-257 melanoma) was > 100 µM, the TGI (KM12 colon) was > 100 µM and the TGI (RXF 393 renal) was > 100 µM. For the same molecule, the TGI (EKVX NSCLC) was > 100 µM, the TGI (M14 melanoma) was > 100 µM and the TGI (NCI-H460 lung) was > 100 µM. The TGI (SF-295 CNS) was > 100 µM, the TGI (HCT-116 colon) was > 100 µM and the TGI (OVCAR-4 ovarian) was > 100 µM. The TGI (SK-MEL-2 melanoma) was > 100 µM.
